In patent US20220233743A1, “WOUND CLOSURE ENHANCEMENT METHODS AND MATERIALS VIA MANIPULATION OR AUGMENTATION OF LIPIN-1” (Board of Supervisors of Louisiana State University and …, priority 2019, published 2022):

System: BMDMs
Test: Central carbon analysis of IL-4 treated BMDMs
Format: cell-based, mouse
Settings: 40 ng/ml IL-4 for 4 h
Procedure: BMDMs from lipin-1^mKO and littermate control mice were seeded at a density of 1×10^6/ml into Falcon tubes (60818-500; VWR). Cells were either treated with or without IL-4 (40 ng/ml) for 4 h. Cells were then collected and spun at 400×g for 5 min. Cell pellets were sent to Creative Proteomics (Shirley, N.Y.) for central carbon analysis.
Macrophages need to align individual metabolic pathways to effectively respond to stimuli. The inventors wanted to understand the consequences of lipin-1 activity on immunometabolic responses in macrophages after stimulation with IL-4. WT and lipin-1 KO macrophages were stimulated with and without 40 ng/ml IL-4 for 4 h. Cell pellets were then sent to Creative Proteomics for central carbon analysis to determine the abundance of metabolites in major metabolic pathways, such as glycolysis, TCA cycle, and PPP. At baseline, lipin-1-deficient macrophages have an altered metabolism compared with WT macrophages. Lipin-1 KO BMDMs have multiple elevated glycolytic metabolites compared with WT BMDMs (FIGS. 10 and 43). […] The inventors also see an increase in metabolites within the PPP (FIG. 10). Upregulation of the PPP can result in increased NADPH (FIG. 10).
The alterations in metabolism in lipin-1-deficient BMDMs at baseline were exacerbated upon stimulation with IL-4. […] The TCA cycle generates electron carriers (NADH) that are used by the electron transport chain to generate ATP as part of oxidative phosphorylation. […] Lipin-1-deficient macrophages have an increase in the initial metabolites of the PPP, 6P-gluconate. The conversion of glucose-6P to 6P-gluconate generates NADPH, which can be used in lipid synthetic pathways (FIG. 10). […] Complete central carbon analysis can be found is found below: […]

## IL-4: cytokine IL-4 (R&D Biosystems, 404-ML-050) used to stimulate macrophages; optional component of the claimed composition
KO (lipin-1mKO) BMDMs
  6P-Gluconate, Mean: 0.02073
  ADP, Mean: 0.6171
  ADP-Glucose, Mean: 0.0026
  AMP, Mean: 2.121
  ATP, Mean: 0.24
  Acetyl-CoA, Mean: 0.00588
  Acetyl-Phosphate, Mean: 0.4686
  Acetylglucosamine-1P, Mean: 0.1085
  Acetylglucosamine-6P, Mean: 0.4128
  Citrate, Mean: 17.69
  DHAP, Mean: 0.05052
  Erythrose-4P, Mean: 0.03703
  Fructose-1,6-bisP, Mean: 0.02422
  Fructose-1P, Mean: 0.00893
  Fructose-6P, Mean: 0.05762
  Fumarate, Mean: 15.48
  GDP, Mean: 0.1098
  GMP, Mean: 14.33
  GTP, Mean: 0.0303
  Glucosamine-6P, Mean: 0.03932
  Glucose, Mean: 70.05
  Glucose-1,6-bisP, Mean: 0.04135
  Glucose-1P, Mean: 0.03615
  Glucose-6P, Mean: 0.09843
  Glyceraldehyde-3P, Mean: 0.1128
  Glycerate-2,3P, Mean: 0.00052
  Glycerate-2P, Mean: 0.00902
  Glycerate-3P, Mean: 0.07625
  Glycerol-3P, Mean: 0.8631
  Glycolate, Mean: 20.92
  Hs-CoA, Mean: 0.0443
  Isocitrate, Mean: 0.2094
  Latate, Mean: 1872
  Malate, Mean: 73.43
  Mannose-6P, Mean: 0.01255
  NAD+, Mean: 0.3551
  NADH, Mean: 0.3515
  NADP+, Mean: 0.1139
  NADPH, Mean: 0.1752
  PEP, Mean: 0.04492
  Phosphocreatine, Mean: 0.2338
  Pyruvate, Mean: 35.61
  Ribose-1,5bisP, Mean: 0.00195
  Ribose-5P, Mean: 0.07803
  Ribulose-1,5bisP, Mean: 0.02412
  Ribulose-5P, Mean: 0.1828
  Sedoheptulose-7P, Mean: 0.05303
  Succinate, Mean: 36.15
  Succinyl-CoA, Mean: 0.0234
  UDP, Mean: 0.1803
  UDP-Glucose, Mean: 0.5266
  UDP-acetylglucosamine, Mean: 0.9395
  UMP, Mean: 16.84
  UTP, Mean: 4.409
  cyclic-ADPR, Mean: 0.3267
  cyclic-AMP, Mean: 0.0031
  cyclic-UMP, Mean: 0.00447
  α-Ketoglutarate, Mean: 3.985
WT BMDMs
  6P-Gluconate, Mean: 0.01622
  ADP, Mean: 0.8758
  ADP-Glucose, Mean: 0.00298
  AMP, Mean: 2.316
  ATP, Mean: 0.2736
  Acetyl-CoA, Mean: 0.00738
  Acetyl-Phosphate, Mean: 0.496
  Acetylglucosamine-1P, Mean: 0.1361
  Acetylglucosamine-6P, Mean: 0.5132
  Citrate, Mean: 15.89
  DHAP, Mean: 0.05342
  Erythrose-4P, Mean: 0.05778
  Fructose-1,6-bisP, Mean: 0.0196
  Fructose-1P, Mean: 0.00392
  Fructose-6P, Mean: 0.06408
  Fumarate, Mean: 19.48
  GDP, Mean: 0.1479
  GMP, Mean: 15.29
  GTP, Mean: 0.04348
  Glucosamine-6P, Mean: 0.04035
  Glucose, Mean: 53.46
  Glucose-1,6-bisP, Mean: 0.04287
  Glucose-1P, Mean: 0.03848
  Glucose-6P, Mean: 0.1044
  Glyceraldehyde-3P, Mean: 0.1365
  Glycerate-2,3P, Mean: 0.00063
  Glycerate-2P, Mean: 0.00803
  Glycerate-3P, Mean: 0.0653
  Glycerol-3P, Mean: 0.982
  Glycolate, Mean: 19.94
  Hs-CoA, Mean: 0.0517
  Isocitrate, Mean: 0.1146
  Latate, Mean: 2685
  Malate, Mean: 87.07
  Mannose-6P, Mean: 0.01458
  NAD+, Mean: 0.3884
  NADH, Mean: 0.5159
  NADP+, Mean: 0.1431
  NADPH, Mean: 0.1122
  PEP, Mean: 0.03792
  Phosphocreatine, Mean: 0.2747
  Pyruvate, Mean: 37.78
  Ribose-1,5bisP, Mean: 0.00238
  Ribose-5P, Mean: 0.08472
  Ribulose-1,5bisP, Mean: 0.02488
  Ribulose-5P, Mean: 0.2631
  Sedoheptulose-7P, Mean: 0.04902
  Succinate, Mean: 52.07
  Succinyl-CoA, Mean: 0.02933
  UDP, Mean: 0.2351
  UDP-Glucose, Mean: 0.5467
  UDP-acetylglucosamine, Mean: 1.096
  UMP, Mean: 18
  UTP, Mean: 5.48
  cyclic-ADPR, Mean: 0.3519
  cyclic-AMP, Mean: 0.00362
  cyclic-UMP, Mean: 0.00372
  glycolytic and TCA cycle metabolites on IL-4 stimulation: significant increase
  α-Ketoglutarate, Mean: 3.785
lipin-1 KO macrophages
  TCA metabolite succinate on IL-4 stimulation: decrease
  isocitrate on IL-4 stimulation: significant increase
